In US10485235B2, “Aryloxypyrimidinyl ethers as herbicides” (FMC Corporation, priority 2015, dated 2019):

Legend:
Format in all cases: in vivo
[1] = test system: kochia (Kochia scoparia); assay: Test A preemergence, kochia; conditions: for Plant response rating, Kochia: Preemergence, 0 to 100 scale (0 no effect, 100 complete control)
How it was run: (§1)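 Plants grown in pots of loam blended with sand were treated either before emergence, via directed soil spray, or after emergence at the one- to two-leaf stage. Following about 10 days in the greenhouse, each treatment was visually compared with untreated controls and rated from 0 (no effect) to 100 (complete control).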

[2] = test system: ragweed (common ragweed, Ambrosia elatior); assay: Test A postemergence, ragweed; conditions: for Plant response rating, Ragweed: postemergence, 0 to 100 scale, 0 is no effect, 100 is complete control, approximately 10 days
How it was run: as §1

[3] = test system: ryegrass, Italian (Italian ryegrass, Lolium multiflorum); assay: Test A preemergence, Italian ryegrass; conditions: for Plant response rating, Ryegrass, Italian: Preemergence, 0 to 100 scale (0 no effect, 100 complete control)
How it was run: as §1

[4] = test system: pigweed (Amaranthus retroflexus); assay: Test A preemergence, pigweed; conditions: for Plant response rating, Pigweed: Preemergence, 0 to 100 scale (0 no effect, 100 complete control)
How it was run: as §1

[5] = test system: corn (Zea mays); assay: Test A postemergence, corn; conditions: for Plant response rating, Corn: postemergence, 0 to 100 scale, 0 is no effect, 100 is complete control, approximately 10 days
How it was run: as §1

[6] = test system: pigweed (Amaranthus retroflexus); assay: Test A postemergence, pigweed; conditions: for Plant response rating, Pigweed: postemergence, 0 to 100 scale, 0 is no effect, 100 is complete control, approximately 10 days
How it was run: as §1

[7] = test system: rice (Oryza sativa); assay: Test B flooded paddy test, rice
How it was run: (§2)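 Visual injury scored 0 (no effect) to 100 (complete control) relative to controls 13-15 days after treatment in greenhouse. Treatment: test compound added into paddy water of pots flooded 3 cm over soil, holding 2-leaf-stage plants; water level kept constant.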

[8] = test system: barnyardgrass (Echinochloa crus-galli); assay: Test A postemergence, barnyardgrass; conditions: for Plant response rating, Barnyardgrass: postemergence, 0 to 100 scale, 0 is no effect, 100 is complete control, approximately 10 days
How it was run: as §1

[9] = test system: wheat (Triticum aestivum); assay: Test A postemergence, wheat; conditions: for Plant response rating, Wheat: postemergence, 0 to 100 scale, 0 is no effect, 100 is complete control, approximately 10 days
How it was run: as §1

[10] = test system: ryegrass, Italian (Italian ryegrass, Lolium multiflorum); assay: Test A postemergence, Italian ryegrass; conditions: for Plant response rating, Ryegrass, Italian: postemergence, 0 to 100 scale, 0 is no effect, 100 is complete control, approximately 10 days
How it was run: as §1

[11] = test system: ducksalad (Heteranthera limosa); assay: Test B flooded paddy test, ducksalad
How it was run: as §2

[12] = test system: barnyardgrass (Echinochloa crus-galli); assay: Test B flooded paddy test, barnyardgrass
How it was run: as §2

[13] = test system: barnyardgrass (Echinochloa crus-galli); assay: Test A preemergence, barnyardgrass; conditions: for Plant response rating, Barnyardgrass: Preemergence, 0 to 100 scale (0 no effect, 100 complete control)
How it was run: as §1

[14] = test system: foxtail, giant (giant foxtail, Setaria faberii); assay: Test A preemergence, giant foxtail; conditions: for Plant response rating, Foxtail, Giant: Preemergence, 0 to 100 scale (0 no effect, 100 complete control)
How it was run: as §1

[15] = test system: kochia (Kochia scoparia); assay: Test A postemergence, kochia; conditions: for Plant response rating, Kochia: postemergence, 0 to 100 scale, 0 is no effect, 100 is complete control, approximately 10 days
How it was run: as §1

[16] = test system: ragweed (common ragweed, Ambrosia elatior); assay: Test A preemergence, ragweed; conditions: for Plant response rating, Ragweed: Preemergence, 0 to 100 scale (0 no effect, 100 complete control)
How it was run: as §1

[17] = test system: galium (catchweed bedstraw, Galium aparine); assay: Test A postemergence, galium; conditions: for Plant response rating, Galium: postemergence, 0 to 100 scale, 0 is no effect, 100 is complete control, approximately 10 days
How it was run: as §1

[18] = test system: sedge, umbrella (small-flower umbrella sedge, Cyperus difformis); assay: Test B flooded paddy test, umbrella sedge
How it was run: as §2

[19] = test system: foxtail, giant (giant foxtail, Setaria faberii); assay: Test A postemergence, giant foxtail; conditions: for Plant response rating, Foxtail, Giant: postemergence, 0 to 100 scale, 0 is no effect, 100 is complete control, approximately 10 days
How it was run: as §1

[20] = test system: blackgrass (Alopecurus myosuroides); assay: Test A postemergence, blackgrass; conditions: for Plant response rating, Blackgrass: postemergence, 0 to 100 scale, 0 is no effect, 100 is complete control, approximately 10 days
How it was run: as §1

[21] = 250 g ai/ha, Flood, visual rating after 13 to 15 days, scale 0 to 100, 0 is no effect, 100 is complete control
[22] = Bassia scoparia, pre-emergence, 240 h, read-out: Plant response rating, Kochia
[23] = Ambrosia artemisiifolia, post-emergence, 240 h, read-out: Plant response rating, Ragweed
[24] = Lolium multiflorum, pre-emergence, 240 h, read-out: Plant response rating, Ryegrass, Italian
[25] = Amaranthus retroflexus, pre-emergence, 240 h, read-out: Plant response rating, Pigweed
[26] = Zea mays, post-emergence, 240 h, read-out: Plant response rating, Corn
[27] = Amaranthus retroflexus, post-emergence, 240 h, read-out: Plant response rating, Pigweed
[28] = Echinochloa crus-galli, post-emergence, 240 h, read-out: Plant response rating, Barnyardgrass
[29] = Triticum aestivum, post-emergence, 240 h, read-out: Plant response rating, Wheat
[30] = Lolium multiflorum, post-emergence, 240 h, read-out: Plant response rating, Ryegrass, Italian
[31] = Echinochloa crus-galli, pre-emergence, 240 h, read-out: Plant response rating, Barnyardgrass
[32] = Setaria faberi, pre-emergence, 240 h, read-out: Plant response rating, Foxtail, Giant
[33] = Bassia scoparia, post-emergence, 240 h, read-out: Plant response rating, Kochia
[34] = Ambrosia artemisiifolia, pre-emergence, 240 h, read-out: Plant response rating, Ragweed
[35] = Galium, post-emergence, 240 h, read-out: Plant response rating, Galium
[36] = Setaria faberi, post-emergence, 240 h, read-out: Plant response rating, Foxtail, Giant
[37] = Alopecurus myosuroides, post-emergence, 240 h, read-out: Plant response rating, Blackgrass

FC(F)(F)CCOc1c(Cl)cccc1Oc1ncc(Cl)cn1 [Compound 43]
90: Plant response rating, Kochia ([1]; 125 g ai/ha) | Plant response rating, Pigweed ([6]; 125 g ai/ha) | Plant response rating, Sedge, Umbrella [18, 21]
50: Plant response rating, Pigweed ([6]; 31 g ai/ha) | Plant response rating, Rice [7, 21]
20: Plant response rating, Barnyardgrass ([13]; 31 g ai/ha) | Plant response rating, Galium ([17]; 31 g ai/ha)
30: Plant response rating, Barnyardgrass ([8]; 125 g ai/ha) | Plant response rating, Kochia ([15]; 31 g ai/ha) | Plant response rating, Blackgrass ([20]; 125 g ai/ha)
40: Plant response rating, Pigweed ([4]; 31 g ai/ha) | Plant response rating, Foxtail, Giant ([19]; 125 g ai/ha)
10: Plant response rating, Ryegrass, Italian ([3]; 125 g ai/ha) | Plant response rating, Corn ([5]; 31 g ai/ha) | Plant response rating, Corn ([5]; 125 g ai/ha) | Plant response rating, Foxtail, Giant ([14]; 31 g ai/ha) | Plant response rating, Foxtail, Giant ([19]; 31 g ai/ha)
70: Plant response rating, Barnyardgrass ([13]; 125 g ai/ha)
80: Plant response rating, Kochia ([15]; 125 g ai/ha)
100: Plant response rating, Pigweed ([4]; 125 g ai/ha) | Plant response rating, Ducksalad [11, 21] | Plant response rating, Foxtail, Giant ([14]; 125 g ai/ha)
0: Plant response rating, Kochia ([1]; 31 g ai/ha) | Plant response rating, Ragweed ([2]; 31 g ai/ha) | Plant response rating, Ragweed ([2]; 125 g ai/ha) | Plant response rating, Ryegrass, Italian ([3]; 31 g ai/ha) | Plant response rating, Barnyardgrass ([8]; 31 g ai/ha) | Plant response rating, Wheat ([9]; 31 g ai/ha) | Plant response rating, Wheat ([9]; 125 g ai/ha) | Plant response rating, Ryegrass, Italian ([10]; 31 g ai/ha) | Plant response rating, Ryegrass, Italian ([10]; 125 g ai/ha) | Plant response rating, Barnyardgrass [12, 21] | Plant response rating, Ragweed ([16]; 31 g ai/ha) | Plant response rating, Ragweed ([16]; 125 g ai/ha) | Plant response rating, Blackgrass ([20]; 31 g ai/ha)
60: Plant response rating, Galium ([17]; 125 g ai/ha)

FC(F)(F)C(F)(F)C(F)(F)COc1c(Br)cccc1Oc1ncc(Cl)cn1 [Compound 52, 2-[3-bromo-2-(2,2,3,3,4,4,4-heptafluorobutoxy)phenoxy]-5-chloropyrimidine]
10%: pest or weed control at 125 g/ha [3, 24] | plant injury at 125 g/ha [5, 26] | pest or weed control at 125 g/ha [8, 28] | pest or weed control at 125 g/ha [20, 37]
90%: pest or weed control at 500 g/ha [15, 33] | pest or weed control at 500 g/ha [17, 35] | pest or weed control at 250 g/ha ([18]; Cyperus difformis, read-out: Plant response rating, Sedge, Umbrella)
80%: pest or weed control at 125 g/ha [6, 27] | pest or weed control at 500 g/ha [8, 28] | pest or weed control at 125 g/ha [14, 32] | pest or weed control at 500 g/ha [19, 36]
30%: pest or weed control at 500 g/ha [2, 23] | plant injury at 500 g/ha [5, 26] | pest or weed control at 125 g/ha [13, 31]
0%: pest or weed control at 125 g/ha [1, 22] | plant injury at 125 g/ha [9, 29] | pest or weed control at 250 g/ha ([12]; Echinochloa crus-galli, read-out: Plant response rating, Barnyardgrass) | pest or weed control at 125 g/ha [16, 34] | pest or weed control at 500 g/ha [16, 34]
70%: pest or weed control at 125 g/ha [4, 25] | pest or weed control at 125 g/ha [15, 33]
15%: plant injury at 250 g/ha ([7]; Oryza sativa, read-out: Plant response rating, Rice)
20%: pest or weed control at 125 g/ha [2, 23] | plant injury at 500 g/ha [9, 29] | pest or weed control at 125 g/ha [10, 30] | pest or weed control at 125 g/ha [19, 36] | pest or weed control at 500 g/ha [20, 37]
75%: pest or weed control at 250 g/ha ([11]; Heteranthera limosa, read-out: Plant response rating, Ducksalad)
100%: pest or weed control at 500 g/ha [4, 25] | pest or weed control at 500 g/ha [6, 27] | pest or weed control at 500 g/ha [14, 32]
40%: pest or weed control at 500 g/ha [1, 22] | pest or weed control at 500 g/ha [10, 30] | pest or weed control at 125 g/ha [17, 35]
50%: pest or weed control at 500 g/ha [3, 24] | pest or weed control at 500 g/ha [13, 31]
